Activity calls are given as the source filed them. The rule behind the calls is not given here.
What was measured:
Sus scrofa [1] = experiment: Antagonism of 5-HT-induced tachycardia in anesthetized, vagotomized Yucatan micropigs at 0.1-300 ug/kg dose administered intravenously; format: functional; conditions: iv, read-out: ID50 (the source's name)
Sus scrofa [2] = experiment: Antagonism of 5-HT-induced tachycardia in anesthetized, vagotomized Yucatan micropigs at 3-3000 ug/kg dose administered intraduodenally; no effect; format: functional, organism-based
[3] = molecular target: 5-hydroxytryptamine receptor 4 (Rattus norvegicus) (UniProt Q62758); experiment: Antagonist activity against 5-HT4 receptor mediated relaxation of rat carbachol contracted esophageal muscularis mucosae; format: functional
[4] = Compound was tested for its half-life period at an intravenous dose of 30 ug/kg; format: ADME, organism-based, Sus scrofa; conditions: pig, in vivo, 0.03 mg/kg

Chain of 5-hydroxytryptamine receptor 4 (Rattus norvegicus) (Q62758 whole entry): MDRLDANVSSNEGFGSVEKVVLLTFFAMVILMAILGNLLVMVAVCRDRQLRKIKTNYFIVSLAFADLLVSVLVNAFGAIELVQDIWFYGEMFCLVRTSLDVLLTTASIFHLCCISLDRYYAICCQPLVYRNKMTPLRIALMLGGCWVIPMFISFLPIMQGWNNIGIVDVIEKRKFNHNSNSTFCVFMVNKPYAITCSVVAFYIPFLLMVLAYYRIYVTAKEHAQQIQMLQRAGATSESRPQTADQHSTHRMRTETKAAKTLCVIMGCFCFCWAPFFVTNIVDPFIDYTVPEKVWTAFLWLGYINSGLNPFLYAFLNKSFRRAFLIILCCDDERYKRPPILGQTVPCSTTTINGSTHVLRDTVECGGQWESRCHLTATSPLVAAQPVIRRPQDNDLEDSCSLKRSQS

Row | pKb [3] | half-life [4] | SMILES | ED50 (Sus scrofa [1]) | ID50 (Sus scrofa [2])
1 | 10.3 | < 2.5 h | CCCCN1CCC(COC(=O)c2cc(Cl)c(N)c3c2OCCO3)CC1 | 8 µg/kg | inactive
2 | 10.6 | – | COc1ccc(CCCN2CCC(CCC(=O)c3cc(Cl)c(N)c4c3OCCO4)CC2)cc1 | – | –
3 | 9.9 | – | CCCCN1CCC(CCC(=O)c2cc(Cl)c(N)c3c2OCCO3)CC1 | – | –
4 | 9.9 | – | CS(=O)(=O)NCCN1CCC(CCC(=O)c2cc(Cl)c(N)c3c2OCCO3)CC1 | – | –

Source: ChEMBL document CHEMBL1153669, “Rs-100235: A high affinity 5-HT4 receptor antagonist” (Bioorg Med Chem Lett, 1995)
